“And” between values parts separate entries of the source, which are not always exact repeats. Equal values may be shown once.
Tests used:
[1] = molecular target: Glycogen synthase kinase-3 alpha (Homo sapiens, UniProt P49840); experiment: TR-FRET Assay
Method in brief: (§1)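 TR-FRET readout: streptavidin-d2 (40 nM in added detection mix) plus Tb-anti-pSer641 Ab (2 nM in mix). Steps were 30 min compound preincubation, kinase reaction, then EDTA stop.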

[2] = molecular target: Glycogen synthase kinase-3 beta (Homo sapiens, UniProt P49841); experiment: TR-FRET Assay
Chain of Glycogen synthase kinase-3 beta (P49841 whole entry): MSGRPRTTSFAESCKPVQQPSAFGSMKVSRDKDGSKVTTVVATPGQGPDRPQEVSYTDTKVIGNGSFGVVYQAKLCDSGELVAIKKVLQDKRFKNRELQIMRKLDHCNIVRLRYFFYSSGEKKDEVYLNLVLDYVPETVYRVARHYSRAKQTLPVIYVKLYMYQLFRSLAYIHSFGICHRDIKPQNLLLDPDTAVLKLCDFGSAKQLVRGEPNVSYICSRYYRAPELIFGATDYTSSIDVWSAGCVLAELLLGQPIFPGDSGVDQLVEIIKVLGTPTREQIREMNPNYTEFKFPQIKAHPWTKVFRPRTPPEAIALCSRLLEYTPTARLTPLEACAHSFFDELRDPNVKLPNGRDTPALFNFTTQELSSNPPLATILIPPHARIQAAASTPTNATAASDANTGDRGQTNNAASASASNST
Method in brief: as §1

Chain of Glycogen synthase kinase-3 alpha (P49840 whole entry): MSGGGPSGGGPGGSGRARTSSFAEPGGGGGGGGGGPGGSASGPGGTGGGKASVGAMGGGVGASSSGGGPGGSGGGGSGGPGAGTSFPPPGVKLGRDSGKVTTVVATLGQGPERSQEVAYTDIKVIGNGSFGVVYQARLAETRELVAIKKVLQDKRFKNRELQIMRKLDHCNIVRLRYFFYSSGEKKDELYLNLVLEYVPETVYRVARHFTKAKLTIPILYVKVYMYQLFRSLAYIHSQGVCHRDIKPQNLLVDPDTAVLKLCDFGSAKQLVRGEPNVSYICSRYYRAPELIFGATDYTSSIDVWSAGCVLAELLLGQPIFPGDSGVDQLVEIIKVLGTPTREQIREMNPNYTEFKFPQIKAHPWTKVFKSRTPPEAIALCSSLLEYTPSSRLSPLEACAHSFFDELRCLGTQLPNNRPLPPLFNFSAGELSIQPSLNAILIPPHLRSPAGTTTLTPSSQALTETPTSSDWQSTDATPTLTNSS

SMILES | IC50 [1] | IC50 [2]
CC[C@]1(c2cccc(-c3cnn(C(C)(C)C)c3)c2)C2=CN=NC2NC2=C1C(=O)NC(C)(C)C2 (some centres undefined) [US20250313563, Compound 949107] | > 5000 nM | > 5000 nM
CC[C@@]1(c2cccc(-c3cc(OC)ncc3F)c2)C2=CN=NC2NC2=C1C(=O)NC(C)(C)C2 (some centres undefined) [US20250313563, Compound 949109] | < 100 nM | 100 to 1000 nM
CC[C@@]1(c2cccc(-c3ccnc4cnccc34)c2)C2=CN=NC2NC2=C1C(=O)NC(C)(C)C2 (some centres undefined) [US20250313563, Compound 949110] | 1000 to 5000 nM | > 5000 nM
CC[C@@]1(c2cccc(-c3cn(C)nc3C(C)C)c2)C2=CN=NC2NC2=C1C(=O)NC(C)(C)C2 (some centres undefined) [US20250313563, Compound 949111] | 100 to 1000 nM | 1000 to 5000 nM
CC[C@@]1(c2cccc(OCC(F)F)c2)C2=CN=NC2NC2=C1C(=O)CC(C)(C)C2 (some centres undefined) [US20250313563, Compound 949113] | 1000 to 5000 nM | > 5000 nM
CC[C@@]1(c2cccc(-c3ccnn3C)c2)C2=CN=NC2NC2=C1C(=O)N[C@@]1(CCCOC1)C2 (some centres undefined) [US20250313563, Compound 949115] | < 100 nM and 100 to 1000 nM | < 100 nM and 1000 to 5000 nM
CC[C@]1(c2cccc(C(F)(F)F)c2)C2=CN=NC2NC2=C1C(=O)N(c1ccc(C)cc1)CC2 (some centres undefined) [US20250313563, Compound 949118] | < 100 nM | 100 to 1000 nM
CC[C@@]1(c2cccc(C(F)(F)F)c2)C2=CN=NC2NC2=C1C(=O)N(c1ccc(C)cc1)CC2 (some centres undefined) [US20250313563, Compound 949119] | 1000 to 5000 nM | > 5000 nM
CC[C@@]1(c2cccc(C(F)(F)F)c2)C2=CN=NC2NC2=C1C(=O)N(c1cnc(OC)nc1)CC2 (some centres undefined) [US20250313563, Compound 949127] | 1000 to 5000 nM | > 5000 nM
CC[C@@]1(c2cccc(C(F)(F)F)c2)C2=CN=NC2NC2=C1C(=O)N(c1ccccc1C)CC2 (some centres undefined) [US20250313563, Compound 949129] | > 5000 nM | > 5000 nM
CC[C@]1(c2cccc(C3CN(C(C)=O)C3)c2)C2=CN=NC2NC2=C1C(=O)CC(C)(C)C2 (some centres undefined) [US20250313563, Compound 949131] | 100 to 1000 nM | 1000 to 5000 nM
CC[C@@]1(c2cccc(C3CN(C(C)=O)C3)c2)C2=CN=NC2NC2=C1C(=O)CC(C)(C)C2 (some centres undefined) [US20250313563, Compound 949132] | > 5000 nM | > 5000 nM
CCC1(c2cccc(-c3ccnc(C)c3)c2)C2=C(CC(C)(C)NC2=O)NC2N=NC(C(F)F)=C21 (centres undefined) [US20250313563, Compound 949169] | < 100 nM and 100 to 1000 nM | < 100 nM and 1000 to 5000 nM
CCC1(c2cccc(-c3cn(C)nc3C)c2)C2=C(CC(C)(C)NC2=O)NC2N=NC(C(F)F)=C21 (centres undefined) [US20250313563, Compound 949170] | < 100 nM | < 100 nM
CCC1(c2cccc(-c3cnn(C)c3)c2)C2=C(CC(C)(C)NC2=O)NC2N=NC(C(F)F)=C21 (centres undefined) [US20250313563, Compound 949171] | < 100 nM | < 100 nM and 1000 to 5000 nM
CCC1(c2cccc(N(C)c3ncccn3)c2)C2=C(CC(C)(C)NC2=O)NC2N=NC(F)=C21 (centres undefined) [US20250313563, Compound 949172] | < 100 nM and 100 to 1000 nM | < 100 nM and 1000 to 5000 nM
CCC1(c2cccc(C(C)C)c2)C2=C(CC(C)(C)NC2=O)NC2N=NC(C)=C21 (centres undefined) [US20250313563, Compound 949173] | < 100 nM | < 100 nM
CCC1(c2cccc(-c3cc(C)nnc3C)c2)C2=C(CC(C)(C)NC2=O)NC2N=NC(C(F)(F)F)=C21 (centres undefined) [US20250313563, Compound 949174] | < 100 nM and 100 to 1000 nM | < 100 nM and 100 to 1000 nM
CC[C@]1(c2cccc(S(=O)(=O)CC3CC3)c2)C2=C(CC(C)(C)NC2=O)NC2N=NC(C(F)(F)F)=C21 (some centres undefined) [US20250313563, Compound 949175] | < 100 nM | < 100 nM
CC[C@]1(c2cccc(-c3cn(C)nc3C)c2)C2=C(CC(C)(C)NC2=O)NC2N=NC(F)=C21 (some centres undefined) [US20250313563, Compound 949176] | 1000 to 5000 nM | > 5000 nM
CC[C@@]1(c2cccc(S(=O)(=O)C3CC3)c2)C2=CN=NC2NC2=C1C(=O)N(C)C(C)(C)C2 (some centres undefined) [US20250313563, Compound 949177] | < 100 nM and 100 to 1000 nM | < 100 nM and 1000 to 5000 nM
CC[C@]1(c2cccc(N3CCCCC3)c2)C2=C(CC(C)(C)NC2=O)NC2N=NC(C(F)(F)F)=C21 (some centres undefined) [US20250313563, Compound 949178] | 100 to 1000 nM | 1000 to 5000 nM
CC[C@@]1(c2cccc(N(C)c3ncccn3)c2)C2=CN=NC2NC2=C1C(=O)NC(C)(C)C2 (some centres undefined) [US20250313563, Compound 949179] | 100 to 1000 nM | > 5000 nM
CC[C@]1(c2cccc(N(C)c3ncccn3)c2)C2=C(CC(C)(C)NC2=O)NC2N=NC(C(F)(F)F)=C21 (some centres undefined) [US20250313563, Compound 949180] | < 100 nM | 100 to 1000 nM
CC[C@]1(c2cccc(S(=O)(=O)C3CC3)c2)C2=CN=NC2NC2=C1C(=O)N(C)C(C)(C)C2 (some centres undefined) [US20250313563, Compound 949184] | 1000 to 5000 nM | > 5000 nM
CC[C@@]1(c2cccc(-c3cn(C)nc3C)c2)C2=C(CC(C)(C)NC2=O)NC2N=NC(F)=C21 (some centres undefined) [US20250313563, Compound 949185] | < 100 nM | < 100 nM and 1000 to 5000 nM

SMILES | IC50 [1] | IC50 [2]
CC[C@@]1(c2cccc(S(=O)(=O)CC3CC3)c2)C2=C(CC(C)(C)NC2=O)NC2N=NC(C(F)(F)F)=C21 (some centres undefined) [US20250313563, Compound 949186] | 100 to 1000 nM | 100 to 1000 nM
CC[C@]1(c2cccc(-c3cnn4ccncc34)c2)C2=CN=NC2NC2=C1C(=O)NC(C)(C)C2 (some centres undefined) [US20250313563, Compound 949263] | > 5000 nM | > 5000 nM
CC[C@]1(c2cccc(-c3cnn(-c4ccccn4)c3)c2)C2=CN=NC2NC2=C1C(=O)NC(C)(C)C2 (some centres undefined) [US20250313563, Compound 949264] | > 5000 nM | > 5000 nM
CC[C@]1(c2cccc(-c3cnn4c3CC(C)(C)CC4)c2)C2=CN=NC2NC2=C1C(=O)NC(C)(C)C2 (some centres undefined) [US20250313563, Compound 949265] | 1000 to 5000 nM | > 5000 nM
CC[C@]1(c2cccc(-c3cnn(C(C)C)c3F)c2)C2=CN=NC2NC2=C1C(=O)NC(C)(C)C2 (some centres undefined) [US20250313563, Compound 949267] | 100 to 1000 nM | 1000 to 5000 nM
CC[C@@]1(c2cccc(C(F)(F)F)c2)C2=CN=NC2NC2=C1C(=O)N(c1cnn(C)c1)CC2 (some centres undefined) [US20250313563, Compound 949271] | 100 to 1000 nM | > 5000 nM
CC[C@]1(c2cccc(C(F)(F)F)c2)C2=CN=NC2NC2=C1C(=O)N(c1ccccn1)CC2 (some centres undefined) [US20250313563, Compound 949310] | 100 to 1000 nM | 100 to 1000 nM
CC[C@@]1(c2cccc(C(F)(F)F)c2)C2=CN=NC2NC2=C1C(=O)N(c1ccccn1)CC2 (some centres undefined) [US20250313563, Compound 949311] | 100 to 1000 nM | > 5000 nM
Cc1cnccc1[C@H]1CC[C@]2(CC1)C1=C(N=NC1)NC1=C2C(=O)CC(C)(C)C1 [US20250313563, Compound 949318] | 100 to 1000 nM | 100 to 1000 nM
Cc1cnccc1[C@H]1CC[C@@]2(CC1)C1=C(N=NC1)NC1=C2C(=O)CC(C)(C)C1 [US20250313563, Compound 949319] | < 100 nM | < 100 nM
CC1(C)CC(=O)C2=C(C1)NC1=C(CN=N1)[C@]21CC[C@@H](c2ccncc2)CC1 [US20250313563, Compound 949320] | 100 to 1000 nM | 1000 to 5000 nM
CC1(C)CC(=O)C2=C(C1)NC1=C(CN=N1)[C@]21CC[C@H](c2ccncc2)CC1 [US20250313563, Compound 949321] | < 100 nM | < 100 nM
Cn1cc([C@H]2CC[C@]3(CC2)C2=C(N=NC2)NC2=C3C(=O)CC(C)(C)C2)cn1 [US20250313563, Compound 949322] | 100 to 1000 nM | 1000 to 5000 nM
Cn1cc([C@H]2CC[C@@]3(CC2)C2=C(N=NC2)NC2=C3C(=O)CC(C)(C)C2)cn1 [US20250313563, Compound 949323] | 1000 to 5000 nM | > 5000 nM
CCC1(c2cccc(-c3ccncc3F)c2)C2=C(CC(C)(C)NC2=O)NC2N=NC(Cl)=C21 (centres undefined) [US20250313563, Compound 949324] | < 100 nM and 100 to 1000 nM | < 100 nM and 1000 to 5000 nM
CCC1(c2cccc(C(C)C)c2)C2=C(N=NC2)NC2=C1C(=O)NC(C)(C)C2 (centres undefined) [US20250313563, Compound 949326] | < 100 nM | 100 to 1000 nM
CC[C@]1(c2cccc(-c3cc(C)ncc3F)c2)C2=C(CC(C)(C)NC2=O)NC2N=NC(C)=C21 (some centres undefined) [US20250313563, Compound 949327] | 1000 to 5000 nM | > 5000 nM
CC[C@]1(c2cccc(OC)c2)C2=C(CC(C)(C)NC2=O)NC2N=NC(C)=C21 (some centres undefined) [US20250313563, Compound 949328] | 1000 to 5000 nM | > 5000 nM
CC[C@]1(c2cccc(-c3cn(C)nc3C)c2)C2=C(CC(C)(C)NC2=O)NC2N=NC(Cl)=C21 (some centres undefined) [US20250313563, Compound 949329] | 1000 to 5000 nM | > 5000 nM
CC[C@@]1(c2cccc(Oc3ncccn3)c2)C2=CN=NC2NC2=C1C(=O)NC(C)(C)C2 (some centres undefined) [US20250313563, Compound 949330] | < 100 nM | 100 to 1000 nM
CC[C@@]1(c2cccc(-c3cc(C)nnc3C)c2)C2=CN=NC2NC2=C1C(=O)NC(C)(C)C2 (some centres undefined) [US20250313563, Compound 949331] | < 100 nM and 100 to 1000 nM | 100 to 1000 nM and 1000 to 5000 nM
CC[C@]1(c2cccc(-c3cc(C)nnc3C)c2)C2=C(CC(C)(C)NC2=O)NC2N=NC(C)=C21 (some centres undefined) [US20250313563, Compound 949332] | 1000 to 5000 nM | > 5000 nM
CC[C@@]1(c2cccc(-c3cc(C)nnc3C)c2)C2=C(CC(C)(C)NC2=O)NC2N=NC(C)=C21 (some centres undefined) [US20250313563, Compound 949333] | < 100 nM | 100 to 1000 nM
CC[C@]1(c2cccc(-c3cc(C)nnc3C)c2)C2=CN=NC2NC2=C1C(=O)NC(C)(C)C2 (some centres undefined) [US20250313563, Compound 949334] | 1000 to 5000 nM | > 5000 nM
CC[C@]1(c2cccc(Oc3ncccn3)c2)C2=CN=NC2NC2=C1C(=O)NC(C)(C)C2 (some centres undefined) [US20250313563, Compound 949335] | > 5000 nM | > 5000 nM
CC[C@@]1(c2cccc(OC)c2)C2=C(CC(C)(C)NC2=O)NC2N=NC(C)=C21 (some centres undefined) [US20250313563, Compound 949337] | 100 to 1000 nM | 1000 to 5000 nM

From BindingDB's records for patent US20250313563 (The Broad Institute, 2025)
